Results taken from BindingDB's records for doi:10.1016/j.chembiol.2016.11.007 (University of Connecticut, 2016).

Assays:
Assay in all cases: DHFR Inhibition Assay
[1] = target: Dihydrofolate reductase type 1 from Tn4003 (Staphylococcus aureus, UniProt P13955)
Dihydrofolate reductase [2] = target: T1, Dihydrofolate reductase (Staphylococcus aureus, UniProt C7C2U7)
T1 sequence (C7C2U7 whole entry): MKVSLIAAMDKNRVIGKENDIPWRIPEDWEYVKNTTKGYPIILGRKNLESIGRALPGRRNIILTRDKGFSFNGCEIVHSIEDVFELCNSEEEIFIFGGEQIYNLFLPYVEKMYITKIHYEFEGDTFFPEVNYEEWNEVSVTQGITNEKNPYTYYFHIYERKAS

Dihydrofolate reductase [3] = target: T2, Dihydrofolate reductase (Staphylococcus aureus, UniProt Q4H3Y3)
T2 sequence (Q4H3Y3 whole entry): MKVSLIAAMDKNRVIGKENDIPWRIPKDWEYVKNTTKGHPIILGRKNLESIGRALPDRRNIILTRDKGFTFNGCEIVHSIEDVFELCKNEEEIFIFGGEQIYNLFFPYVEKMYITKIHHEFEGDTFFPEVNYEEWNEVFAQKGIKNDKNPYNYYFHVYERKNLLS

Dihydrofolate reductase [4] = target: Dihydrofolate reductase (Staphylococcus aureus, UniProt P0A017)
Dihydrofolate reductase (Staphylococcus aureus, UniProt P0A017), sequence (P0A017 whole entry): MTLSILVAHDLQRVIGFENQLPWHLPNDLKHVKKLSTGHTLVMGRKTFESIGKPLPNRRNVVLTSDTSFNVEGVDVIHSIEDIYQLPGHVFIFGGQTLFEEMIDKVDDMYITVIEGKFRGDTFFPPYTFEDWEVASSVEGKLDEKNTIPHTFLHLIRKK

Dihydrofolate reductase type 1 from Tn4003, sequence (P13955 whole entry): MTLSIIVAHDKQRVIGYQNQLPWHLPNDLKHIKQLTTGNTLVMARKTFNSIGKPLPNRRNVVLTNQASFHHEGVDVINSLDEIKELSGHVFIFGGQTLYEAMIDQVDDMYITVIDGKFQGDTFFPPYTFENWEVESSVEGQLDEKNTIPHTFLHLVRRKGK

Row | Compound | IC50 [1] [nM] | IC50 (Dihydrofolate reductase [2]) [nM] | IC50 (Dihydrofolate reductase [3]) [nM] | IC50 (Dihydrofolate reductase [4]) [nM]
1 | CCc1nc(N)nc(N)c1C#C[C@@H](C)c1cc(-c2ccc(C(=O)O)cc2)ccc1OC [UCP1164] | 8800 |  |  | 
2 | CCc1nc(N)nc(N)c1C#CCc1cc(OC)cc(-c2ccc(C(=O)O)cc2)c1 [UCP1175] | 980 | 170 | 1400 | 
3 | CCc1nc(N)nc(N)c1C#C[C@H](C)c1cc(OC)cc(-c2ccc(C(=O)O)cc2)c1 [UCP1173] | 270 |  |  | 
4 | CCc1nc(N)nc(N)c1C#C[C@H](C)c1cc2c(c(-c3ccc(C(=O)O)cc3)c1)OCO2 [UCP1206] | 180 | 54 | 190 | 17
5 | CCc1nc(N)nc(N)c1C#CCc1cc(OC)c(OC)c(-c2ccncc2)c1 [UCP1039] | 360 | 22 | 450 | 
6 | CCc1nc(N)nc(N)c1C#C[C@@H](C)c1cc2c(c(-c3ccc(C(=O)O)cc3)c1)OCO2 [UCP1205] | 340 | 100 | 159 | 18
7 | CCc1nc(N)nc(N)c1C#C[C@@H](C)c1cc(OC)cc(-c2ccc(C(=O)O)cc2)c1 [UCP1172] | 410 |  |  | 
8 | CCc1nc(N)nc(N)c1C#CC(C)c1cc2c(c(-c3ccc(C(=O)O)cc3)c1)OCO2 (stereo unspecified) [UCP1191] | 320 | 41 | 87 | 10
